Assay results published in patent US6706716B2, “Compounds specific for the human α1d adrenergic receptor and uses thereof” (Synaptic Pharmaceutical Corporation, priority 1998, dated 2004).

How the values were obtained:
human 5-HT1a receptor = target: T1, human 5-HT1a receptor (Homo sapiens, UniProt P08908); experiment: Competition binding ([3H]-8-OH-DPAT) at cloned human 5-HT1a receptor; conditions: COS-7 cell membranes, read-out: Binding affinities (pKi) 5-HT1a (converted)
T1 construct: receptor open reading frames and variable non-coding 5′- and 3′-regions, was cloned into the eukaryotic expression vector pCEXV-3; expressed in transfected cells; host or cells: COS-7 cells, transient (DEAE-dextran); a deposited line 5-HT1A-3 (ATCC CRL 11889) is also named
T1 sequence (P08908 1-422): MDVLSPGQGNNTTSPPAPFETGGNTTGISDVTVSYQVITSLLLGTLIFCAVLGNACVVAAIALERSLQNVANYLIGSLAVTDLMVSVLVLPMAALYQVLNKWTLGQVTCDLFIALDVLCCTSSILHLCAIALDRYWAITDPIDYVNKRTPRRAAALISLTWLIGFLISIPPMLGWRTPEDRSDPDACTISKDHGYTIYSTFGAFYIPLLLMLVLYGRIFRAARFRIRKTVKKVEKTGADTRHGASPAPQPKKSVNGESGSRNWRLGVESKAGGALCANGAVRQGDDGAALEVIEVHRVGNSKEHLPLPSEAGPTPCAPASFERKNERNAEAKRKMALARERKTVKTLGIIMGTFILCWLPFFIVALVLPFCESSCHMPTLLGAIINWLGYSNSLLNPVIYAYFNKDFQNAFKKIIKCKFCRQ
Protocol: (§1) First, conditions were determined which allowed measurement of the specific binding of a compound known to bind to the receptor. Then, the binding of the known compound to the receptor in membrane preparations was evaluated in the presence of several different concentrations of the test compound.
(§2) These cell lines were prepared by transfecting the cloned cDNA or cloned genomic DNA or constructs containing both genomic DNA and cDNA encoding the human receptors as described below.
The cDNA corresponding to the ^5-HT1a receptor open reading frames and variable non-coding 5′- and 3′-regions, was cloned into the eukaryotic expression vector pCEXV-3. These constructs were transfected transiently into COS-7 cells by the DEAE-dextran method. Cells were harvested after 72 hours and lysed by sonication in 5 mM Tris-HCl, 5 mM EDTA, pH 7.5. The cell lysates were centrifuged at 1000 rpm for 5 minutes at 4° C., and the supernatant was centrifuged at 30,000×g for 20 minutes at 4° C. The pellet was suspended in 50 mM Tris-HCl buffer (pH 7.7 at room temperature) containing 10 mM MgSO4, 0.5 mM EDTA, and 0.1% ascorbate. The affinity of compounds at 5-HT1a receptors were determined in equilibrium competition binding assays using [^3H]-8-OH-DPAT. Nonspecific binding was defined by the addition of 10 μM mianserin. The bound radioligand was separated by filtration through GF/B filters using a cell harvester.

[1] = target: T2, human α1a adrenergic receptor (Homo sapiens, UniProt P35348); experiment: Radioligand binding ([3H]prazosin) at cloned human α1a adrenergic receptor; conditions: LM(tk-) cell membranes, read-out: Binding affinities (pKi) α1a (converted)
T2 construct: The entire coding region of α1a (1401 bp); expressed in transfected cells
T2 sequence (P35348 1-466): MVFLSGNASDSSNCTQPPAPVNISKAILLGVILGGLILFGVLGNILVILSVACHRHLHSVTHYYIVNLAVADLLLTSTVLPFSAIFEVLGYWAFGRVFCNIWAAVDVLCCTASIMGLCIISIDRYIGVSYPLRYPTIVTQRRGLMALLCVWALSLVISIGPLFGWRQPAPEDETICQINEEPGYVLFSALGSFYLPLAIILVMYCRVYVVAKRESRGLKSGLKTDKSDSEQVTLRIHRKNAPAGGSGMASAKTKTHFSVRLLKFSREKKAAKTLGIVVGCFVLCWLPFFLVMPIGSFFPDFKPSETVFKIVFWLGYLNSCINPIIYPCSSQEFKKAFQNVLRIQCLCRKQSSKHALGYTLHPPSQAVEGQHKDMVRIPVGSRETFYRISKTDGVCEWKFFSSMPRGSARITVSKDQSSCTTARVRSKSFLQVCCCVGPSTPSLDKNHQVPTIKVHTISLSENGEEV
Protocol: as §1, §2
The construct involved ligating three partial overlapping fragments: a 5′0.6 kb HincII genomic clone, a central 1.8 EcoRI hippocampal cDNA clone, and a 3′0.6 Kb PstI genomic clone. The hippocampal cDNA fragment overlaps with the 5′ and 3′ genomic clones so that the HincII and PstI sites at the 5′ and 3′ ends of the cDNA clone, respectively, were utilized for ligation. This full-length clone was cloned into the KpnI site of the expression vector, using the 5′ and 3′ KpnI sites of the fragment, derived from vector (i.e., pBluescript) and 3′-untranslated sequences, respectively. Stable cell lines were selected as described above. Membranes were harvested and assayed for their ability to bind [^3H]prazosin as described below (see Radioligand Binding assays).
Radioligand Binding Assays for α1 Human Adrenergic Receptors: Transfected cells from culture flasks were scraped into 5 ml of 5 mM Tris-HCl, 5 mM EDTA, pH 7.5, and lysed by sonication. The cell lysates were centrifuged at 1000 rpm for 5 min at 4° C., and the supernatant was centrifuged at 30,000×g for 20 min at 4° C. The pellet was suspended in 50 mM Tris-HCl, 1 mM MgCl2, and 0.1% ascorbic acid at pH 7.5. Binding of the α1, antagonist [^3H]prazosin (0.5 nM, specific activity 76.2 Ci/mmol) to membrane preparations of LM(tk-) cells was done in a final volume of 0.25 ml and incubated at 37° C. for 1 hour. Nonspecific binding was determined in the presence of 10 μM phentolamine. The reaction was stopped by filtration through GF/B filters using a cell harvester.

[2] = target: T3, human 5-HT1Dβ (5-HT1B) receptor (Homo sapiens, UniProt P28222); experiment: Competition binding ([3H]serotonin) at cloned human 5-HT1Dβ (5-HT1B) receptor; conditions: read-out: binding affinity (pKi) 5-HT1Dβ (5-HT1B) (converted)
T3 construct: expressed in transfected cells; host or cells: LM(tk-) clonal cell line Ltk-11 (ATCC CRL 10422)
T3 sequence (P28222 whole entry): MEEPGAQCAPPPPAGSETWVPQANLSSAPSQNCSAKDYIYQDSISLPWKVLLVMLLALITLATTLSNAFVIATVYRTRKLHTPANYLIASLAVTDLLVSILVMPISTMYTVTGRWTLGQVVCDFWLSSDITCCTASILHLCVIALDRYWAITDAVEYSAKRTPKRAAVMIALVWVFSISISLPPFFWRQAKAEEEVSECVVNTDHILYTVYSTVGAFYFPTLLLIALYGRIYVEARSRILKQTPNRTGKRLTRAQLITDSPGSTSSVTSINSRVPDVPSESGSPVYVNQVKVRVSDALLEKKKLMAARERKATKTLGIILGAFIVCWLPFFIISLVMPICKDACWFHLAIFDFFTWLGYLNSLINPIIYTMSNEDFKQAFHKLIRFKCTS
Protocol: 5-HT1Dα (5-HT1D) and 5-HT1Dβ (5-HT1B) receptors: The cell lysates of the LM(tk-) clonal cell line stably transfected with the genes encoding each of these 5-HT receptor subtypes were prepared as described above. The cell line for the 5-HT1Dα (5-HT1D) receptor, designated as Ltk-8-30-84, was deposited on Apr. 17, 1990, and accorded ATCC Accession No. CRL 10421. The cell line for the 5-HT1Dβ (5-HT1B) receptor, designated as Ltk-11, was deposited on Apr. 17, 1990, and accorded ATCC Accession No. CRL 10422. These preparations were suspended in 50 mM Tris-HCl buffer (pH 7.4 at 37° C.) containing 10 mM MgCl2, 0.2 mM EDTA, 10 μM pargyline, and 0.1% ascorbate. […] Nonspecific binding was determined in the presence of 10 μM serotonin. The bound radioligand was separated by filtration through GF/B filters using a cell harvester.

| Ki (human 5-HT1a receptor) [nM] | Ki [1] [nM] | Structure (SMILES) | Ki [2] [nM] |
| --- | --- | --- | --- |
| 50.1 | 6310 | C[C@H](CN1CCN(c2cc(F)ccc2F)CC1)N1C(=O)CC2(CCCC2)CC1=O [Compound 8, 8-{(1R)-2-[4-(2,5-Difluorophenyl)piperazin-1-yl]-1-methylethyl}-8-azaspiro[4.5]decane-7,9-dione] |  |
| 2510 | 7940 | C[C@@H](CN1CCN(c2cc(F)ccc2F)CC1)N1C(=O)CC2(CCCC2)CC1=O [Compound 10, 8-{(1S)-2-[4-(2,5-Difluorophenyl)piperazin-1-yl]-1-methylethyl}-8-azaspiro[4.5]decane-7,9-dione] |  |
| 7.94 | 79.4 | COc1ccc(F)cc1C1CCN(CCN2C(=O)CC3(CCCC3)CC2=O)CC1 [Compound 12, 8-{2-[4-(5-Fluoro-2-methoxyphenyl)piperidin-1-yl]ethyl}-8-azaspiro[4.5]decane-7,9-dione] |  |
| 50.1 | 3980 | O=C1CC2(CCCC2)CC(=O)N1CCN1CCN(c2ccc(F)c(F)c2)CC1 [Compound 15, 8-{2-[4-(3,4-Difluorophenyl)piperazin-1-yl]ethyl}-8-azaspiro[4.5]decane-7,9-dione] |  |

The remaining lines, values behind:

| Structure (SMILES) | Ki (human 5-HT1a receptor) [nM] | Ki [1] [nM] | Ki [2] [nM] |
| --- | --- | --- | --- |
| O=C1CC2(CCCC2)CC(=O)N1CCN1CCN(c2cc(F)ccc2F)CC1 [Compound 6, 8-{2-[4-(2,5-Difluorophenyl)piperazin-1-yl]ethyl}-8-azaspiro[4.5]decane-7,9-dione] | 25.1 |  |  |
| O=C1CC2(CCCC2)CC(=O)N1CCN1CCN(c2cc(F)c(F)cc2F)CC1 [Compound 7, 8-{2-[4-(2,4,5-Trifluorophenyl)piperazin-1-yl]ethyl}-8-azaspiro[4.5]decane-7,9-dione] | 398 | 3980 | 5010 |
| Cc1ccc(Cl)cc1N1CCN(CCN2C(=O)CC3(CCCC3)CC2=O)CC1 [Compound 13, 8-{2-[4-(5-Chloro-2-methylphenyl)piperazino]ethyl}-8-azaspiro [4.5]decane-7,9-dione] | 251 | 7940 |  |
| O=C1CC2(CCCC2)CC(=O)N1CCN1CCN(c2c(F)cccc2F)CC1 [Compound 14, 8-{2-[4-(2,6-Difluorophenyl)piperazino]ethyl}-8-azaspiro[4.5]decane-7,9-dione] | 7.94 | 3160 |  |
